Test results from patent US10052306B2 (LUC THERAPEUTICS, INC., priority 2013, dated 2018).

Molecular target: NR1/NR2B (Homo sapiens (Human), UniProt Q05586+Q13224)
Experiment: Cell assay: FDSS Ca2+ influx inhibition in HEK293 cells expressing NR1/NR2B;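 further: Fluo-8 Ca2+ signal read on Hamamatsu FDSS 6000 after glutamate, glycine and Ca2+ challenge following 10 min compound preincubation, end/baseline fluorescence ratio compared with MK801 control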
Settings: Ca2+ influx
[1] = NR2B NAM IC50, HEK293 cells expressing NR1/NR2B
[2] = Binned Activity, HEK293 cells expressing NR1/NR2B, binned NR2B NAM IC50

Sequence of NR1/NR2B (Q13224 27-1484, other chains not shown): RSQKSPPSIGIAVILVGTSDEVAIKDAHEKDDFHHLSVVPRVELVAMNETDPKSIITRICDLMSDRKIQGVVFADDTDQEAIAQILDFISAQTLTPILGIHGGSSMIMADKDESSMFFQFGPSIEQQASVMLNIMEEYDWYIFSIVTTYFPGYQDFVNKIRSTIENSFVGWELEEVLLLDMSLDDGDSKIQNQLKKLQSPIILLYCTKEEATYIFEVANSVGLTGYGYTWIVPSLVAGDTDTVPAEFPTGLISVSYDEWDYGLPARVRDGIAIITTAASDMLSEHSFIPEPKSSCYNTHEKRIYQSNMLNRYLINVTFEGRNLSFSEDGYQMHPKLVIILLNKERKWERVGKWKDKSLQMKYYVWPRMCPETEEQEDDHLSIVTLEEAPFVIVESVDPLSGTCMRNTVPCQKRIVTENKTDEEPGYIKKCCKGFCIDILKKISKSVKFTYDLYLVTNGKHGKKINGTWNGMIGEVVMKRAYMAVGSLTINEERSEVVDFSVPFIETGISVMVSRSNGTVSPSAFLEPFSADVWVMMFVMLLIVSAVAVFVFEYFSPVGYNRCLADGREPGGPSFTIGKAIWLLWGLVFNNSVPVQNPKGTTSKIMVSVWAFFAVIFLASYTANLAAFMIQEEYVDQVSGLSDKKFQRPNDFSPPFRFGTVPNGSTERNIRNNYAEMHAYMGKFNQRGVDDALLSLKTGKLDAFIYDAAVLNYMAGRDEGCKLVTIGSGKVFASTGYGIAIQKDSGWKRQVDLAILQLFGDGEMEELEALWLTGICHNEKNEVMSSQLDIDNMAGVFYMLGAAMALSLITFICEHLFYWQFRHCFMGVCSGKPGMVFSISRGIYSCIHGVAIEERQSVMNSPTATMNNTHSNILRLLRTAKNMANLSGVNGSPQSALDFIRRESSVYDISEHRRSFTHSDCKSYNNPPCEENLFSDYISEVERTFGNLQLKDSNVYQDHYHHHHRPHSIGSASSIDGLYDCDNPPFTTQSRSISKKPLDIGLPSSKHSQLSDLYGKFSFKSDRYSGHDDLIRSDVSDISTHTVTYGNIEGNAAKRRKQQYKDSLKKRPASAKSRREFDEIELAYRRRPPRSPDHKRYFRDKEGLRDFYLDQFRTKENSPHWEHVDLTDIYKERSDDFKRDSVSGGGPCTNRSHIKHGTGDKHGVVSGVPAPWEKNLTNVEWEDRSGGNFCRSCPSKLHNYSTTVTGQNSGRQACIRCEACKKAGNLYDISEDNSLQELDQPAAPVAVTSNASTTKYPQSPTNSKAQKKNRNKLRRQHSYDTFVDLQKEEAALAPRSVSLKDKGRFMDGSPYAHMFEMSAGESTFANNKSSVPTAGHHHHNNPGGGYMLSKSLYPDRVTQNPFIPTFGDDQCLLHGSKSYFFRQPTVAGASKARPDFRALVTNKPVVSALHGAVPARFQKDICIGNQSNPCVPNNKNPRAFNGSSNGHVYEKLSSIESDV

COc1ccc(C[C@]2(O)C[C@H]3CN(CC(O)c4ccc(O)cn4)C[C@H]3C2)cc1 (mixture of isomers) [Example 199, rac-6-{2-[(3aR,5R,6aS)-5-hydroxy-5-[(4-methoxyphenyl)methyl]-octahydrocyclopenta[c]pyrrol-2-yl]-1-hydroxyethyl}pyridin-3-ol]
IC50 [1]: 36.3 nM

Oc1ccc(C(O)CN2C[C@@H]3C[C@@](O)(Cc4ccccn4)C[C@@H]3C2)cc1 (mixture of isomers) [Example 232, rac-(3aR,5r,6aS)-2-(2-hydroxy-2-(4-hydroxyphenyl)ethyl)-5-(pyridin-2-ylmethyl)octahydrocyclo-penta[c]pyrrol-5-ol]
IC50 [1]: 669 nM

COc1ccc(NC(=O)N2C[C@@H]3C[C@@](O)(c4cccc(OC)c4)C[C@@H]3C2)cc1 [Example 17, 5-hydroxy-5-(3-methoxyphenyl)-N-(4-methoxyphenyl)-octahydrocyclopenta[c] pyrrole-2-carboxamide]
IC50 [2]: > 10000 nM

Oc1ccc(C(O)CN2C[C@H]3C[C@@H](Cc4ccccc4)C[C@H]3C2)cc1 (mixture of isomers) [Example 304, rac-4-{2-[(3aR,5S,6aS)-5-benzyl-octahydrocyclopenta[c]pyrrol-2-yl]-1-hydroxyethyl}phenol]
IC50 [2]: < 100 nM
IC50 [1]: 16.8 nM

OC(CN1C[C@H]2CC(Cc3ccccc3)C[C@H]2C1)c1cccc(C(F)(F)F)c1 (mixture of isomers) [Example 309, rac-2-((3aR,6aS)-5-benzylhexahydrocyclo-penta[c]pyrrol-2(1H)-yl)-1-(3-(trifluoromethyl)phenyl) ethanol]
IC50 [2]: > 10000 nM
IC50 [1]: ≥ 10000 nM

Oc1ccc(C(O)CN2C[C@@H]3C[C@@](O)(Cc4ccccc4)C[C@@H]3C2)nc1 (mixture of isomers) [Example 144, rac-(3aR,5r,6aS)-5-benzyl-2-(2-hydroxy-2-(5-hydroxypyridin-2-yl)ethyl)octahydrocyclo-penta[c]pyrrol-5-ol]
IC50 [2]: < 100 nM
IC50 [1]: 26.8 nM

Cc1ccc(NC(=O)N2C[C@@H]3C[C@@](O)(c4ccccc4C)C[C@@H]3C2)cc1 [Example 9]
IC50 [2]: > 10000 nM

Oc1ccc(C(O)CN2C[C@@H]3C[C@@](O)(Cc4cccc(F)c4F)C[C@@H]3C2)nc1 (mixture of isomers) [Example 248, rac-(3aR,5r,6aS)-5-(2,3-difluorobenzyl)-2-(2-hydroxy-2-(5-hydroxypyridin-2-yl)ethyl)octahydrocyclo-penta[c]pyrrol-5-ol]
IC50 [1]: 47.6 nM

Oc1ccc(C(O)CN2C[C@H]3C[C@H](Cc4ccccc4)C[C@H]3C2)cc1 (mixture of isomers) [Example 306, rac-4-{2-[(3aR,5R,6aS)-5-benzyl-octahydrocyclopenta[c]pyrrol-2-yl]-1-hydroxyethyl}phenol]
IC50 [2]: < 100 nM
IC50 [1]: 11.7 nM

CC(C)(C)c1ccc([C@]2(O)C[C@H]3CN(CC(O)c4cccc(F)c4)C[C@H]3C2)cc1 (mixture of isomers) [Example 71, rac-5-(4-tert-butylphenyl)-2-[2-(3-fluorophenyl)-2-hydroxyethyl]-octahydrocyclopenta[c] pyrrol-5-ol]
IC50 [2]: > 10000 nM
IC50 [1]: ≥ 10000 nM

Oc1ccc(C(O)CN2C[C@@H]3C[C@@](O)(Cc4ccccc4)C[C@@H]3C2)cn1 (mixture of isomers) [Example 181, rac-5-{2-[(3aR,5R,6aS)-5-benzyl-5-hydroxy-octahydrocyclopenta[c]pyrrol-2-yl]-1-hydroxyethyl}pyridin-2-ol]
IC50 [2]: > 10000 nM
IC50 [1]: ≥ 10000 nM

COc1ccc(C(O)CN2C[C@@H]3C[C@@](O)(c4ccccc4)C[C@@H]3C2)cc1 (mixture of isomers) [Example 66, rac-2-[2-hydroxy-2-(4-methoxyphenyl)ethyl]-5-phenyl-octahydrocyclopenta[c] pyrrol-5-ol]
IC50 [2]: > 10000 nM
IC50 [1]: ≥ 10000 nM

C[C@@H](NC(=O)N1C[C@@H]2C[C@@](O)(c3ccccc3)C[C@@H]2C1)c1ccc(Cl)cc1 [Example 20, N-[(1R)-1-(4-chlorophenyl)ethyl]-5-hydroxy-5-phenyl-octahydrocyclopenta[c] pyrrole-2-carboxamide]
IC50 [2]: > 10000 nM

CO[C@@]1(Cc2ccccc2)C[C@H]2CN(CC(O)c3ccc(O)c(F)c3)C[C@H]2C1 (mixture of isomers) [Example 175, rac-4-(2-((3aR,5r,6aS)-5-benzyl-5-methoxyhexahydrocyclo-penta[c]pyrrol-2(1H)-yl)-1-hydroxyethyl)-2-fluorophenol]
IC50 [1]: 32.4 nM

COc1cccc(NC(=O)N2C[C@@H]3C[C@@](O)(c4ccccc4)C[C@@H]3C2)c1 [Example 7]
IC50 [2]: > 10000 nM
IC50 [1]: ≥ 10000 nM

CO[C@@]1(Cc2ccccc2)C[C@H]2CN(CC(O)c3ccc(O)cc3)C[C@H]2C1 (mixture of isomers) [Example 176, rac-4-(2-((3aR,5r,6aS)-5-benzyl-5-methoxyhexahydrocyclo-penta[c]pyrrol-2(1H)-yl)-1-hydroxyethyl)phenol]
IC50 [1]: 32.4 nM

CO[C@@]1(Cc2ccccc2)C[C@H]2CN(CC(O)c3ccc(O)cn3)C[C@H]2C1 (mixture of isomers) [Example 177, rac-6-(2-((3aR,5r,6aS)-5-benzyl-5-methoxyhexahydrocyclo-penta[c]pyrrol-2(1H)-yl)-1-hydroxyethyl)pyridin-3-ol]
IC50 [1]: 31.6 nM

Cc1ccccc1[C@]1(O)C[C@H]2CN(C(C)C(=O)c3ccc(O)cc3)C[C@H]2C1 (mixture of isomers) [Example 94, rac-2-[5-hydroxy-5-(2-methylphenyl)-octahydrocyclopenta[c]pyrrol-2-yl]-1-(4-hydroxyphenyl)propan-1-one]
IC50 [2]: > 10000 nM
IC50 [1]: ≥ 10000 nM

OC(CN1C[C@H]2C[C@@H](c3ccccc3)C[C@H]2C1)c1cccc(C(F)(F)F)c1 (mixture of isomers) [Example 116, rac-2-(5-phenylhexahydrocyclo-penta[c]pyrrol-2(1H)-yl)-1-(3-(trifluoromethyl)phenyl) ethanol]
IC50 [2]: > 10000 nM
IC50 [1]: ≥ 10000 nM

Oc1ccc(C(O)CN2C[C@@H]3C[C@@](O)(Cc4ccc(F)cc4)C[C@@H]3C2)nc1 (mixture of isomers) [Example 168, rac-(3aR,5r,6aS)-5-(4-fluorobenzy)-2-(2-hydroxy-2-(5-hydroxypyridin-2-yl)ethyl)octahydrocyclo-penta[c]pyrrol-5-ol]
IC50 [1]: 17.8 nM

Oc1ccc(C(O)CN2C[C@@H]3C[C@@](O)(CC4CCCCC4)C[C@@H]3C2)cc1 (mixture of isomers) [Example 209, rac-(3aR,5R,6aS)-5-(cyclohexylmethyl)-2-[2-hydroxy-2-(4-hydroxyphenyl)ethyl]-octahydrocyclopenta[c] pyrrol-5-ol]
IC50 [1]: 410 nM

Oc1ccc(C(O)CN2C[C@H]3CC(Cc4ccccc4)C[C@H]3C2)nc1 (mixture of isomers) [Example 298, rac-6-(2-{5-benzyl-octahydrocyclopenta[c]pyrrol-2-yl}-1-hydroxyethyl)pyridin-3-ol]
IC50 [1]: 22.4 nM

Oc1ccc(C(O)CN2CC3(C2)CC(O)(Cc2ccccc2)C3)cc1 (racemic) [Example 343, rac-6-benzyl-2-(2-hydroxy-2-(4-hydroxyphenyl)ethyl)-2-azaspiro[3.3]heptan-6-ol]
IC50 [1]: 506 nM

COc1cccc(NC(=O)N2C[C@@H]3C[C@@](O)(c4ccc(C(C)(C)C)cc4)C[C@@H]3C2)c1 [Example 51]
IC50 [2]: > 10000 nM
IC50 [1]: ≥ 10000 nM

Oc1ccc(C(O)CN2C[C@@H]3C[C@](F)(Cc4ccccc4)C[C@@H]3C2)cc1F (mixture of isomers) [Example 316, rac-4-(2-((3aR,5s,6aS)-5-benzyl-5-fluoro-hexahydrocyclopen-ta[c]pyrrol-2(1H)-yl)-1-hydroxyethyl)-2-fluorophenol]
IC50 [2]: < 100 nM
IC50 [1]: 36.4 nM

CC(C(=O)c1ccc(O)cc1)N1C[C@@H]2C[C@@](O)(c3ccccc3)C[C@@H]2C1 (mixture of isomers) [Example 90, rac-2-(5-hydroxy-5-phenylhexahydrocyclo-penta[c]pyrrol-2(1H)-yl)-1-(4-hydroxyphenyl)propan-1-one]
IC50 [2]: > 10000 nM
IC50 [1]: ≥ 10000 nM

Oc1ccc(C(O)CN2C[C@@H]3C[C@@](O)(Cc4ccc(C(F)(F)F)cc4)C[C@@H]3C2)nc1 (mixture of isomers) [Example 217, rac-6-{2-[(3aR,5R,6aS)-5-hydroxy-5-{[4-(trifluoromethyl)phenyl]methyl}-octahydrocyclopenta[c]pyrrol-2-yl]-1-hydroxyethyl}pyridin-3-ol]
IC50 [1]: 36 nM

CC(C(=O)c1ccc(O)cc1)N1C[C@@H]2C[C@@](O)(c3ccc(C(C)(C)C)cc3)C[C@@H]2C1 (mixture of isomers) [Example 93, rac-2-[5-(4-tert-butylphenyl)-5-hydroxy-octahydrocyclopenta[c]pyrrol-2-yl]-1-(4-hydroxyphenyl)propan-1-one]
IC50 [2]: > 10000 nM
IC50 [1]: ≥ 10000 nM

COC(=O)c1ccc(NC(=O)N2C[C@@H]3C[C@@](O)(c4ccc(C(C)(C)C)cc4)C[C@@H]3C2)cc1 [Example 50]
IC50 [2]: > 10000 nM

Oc1ccc(C(O)CN2C[C@@H]3C[C@@](O)(Cc4ccc(F)cc4F)C[C@@H]3C2)cc1 (mixture of isomers) [Example 245, rac-5-(2,4-difluorobenzyl)-2-(2-hydroxy-2-(4-hydroxyphenyl)ethyl) octahydrocyclopenta[c] pyrrol-5-ol]
IC50 [2]: < 100 nM
IC50 [1]: 23.8 nM

Oc1ccc(C(O)CN2C[C@@H]3C[C@@](O)(Cc4ccccc4)C[C@@H]3C2)nc1F (mixture of isomers) [Example 191, rac-(3aR,5r,6aS)-5-benzyl-2-(2-(6-fluoro-5-hydroxypyridin-2-yl)-2-hydroxyethyl)octahydro-cyclopenta[c]pyrrol-5-ol]
IC50 [1]: 171 nM

Cc1ccccc1[C@]1(O)C[C@H]2CN(C(=O)Nc3ccc(F)cc3)C[C@H]2C1 [Example 13]
IC50 [2]: > 10000 nM
IC50 [1]: ≥ 10000 nM

O=C(Nc1ccc(Cl)c(C(F)(F)F)c1)N1C[C@@H]2C[C@@](O)(c3ccc(F)cc3)C[C@@H]2C1 [Example 43]
IC50 [2]: > 10000 nM
IC50 [1]: ≥ 10000 nM

COc1cccc([C@]2(O)C[C@H]3CN(CC(O)c4cccc(F)c4)C[C@H]3C2)c1 (mixture of isomers) [Example 63, rac-2-[2-(3-fluorophenyl)-2-hydroxyethyl]-5-(3-methoxyphenyl)-octahydrocyclopenta[c] pyrrol-5-ol]
IC50 [2]: > 10000 nM
IC50 [1]: ≥ 10000 nM

COc1cccc([C@]2(O)C[C@H]3CN(C(=O)Nc4ccc(C)cc4C)C[C@H]3C2)c1 [Example 49]
IC50 [2]: > 10000 nM
IC50 [1]: ≥ 10000 nM
